# Results reported in patent US20250303006A1, “BIOCOMPATIBLE ANTISEPTIC COMPOSITION CONTAINING 9-HYDROXYCALABAXANTHONE AND/OR RELATED XANTHONES” (UNIVERSITAT DE LES ILLES BALEARS, priority 2022, published 2025).
# Tests used:
# S. aureus = type: cell-based
# Procedure: S. aureus ATCC 29213 was grown from frozen stocks in Luria-Bertani (LB) broth (Scharlab), at 37° C. under aerobic conditions in an orbital shaker (180 rpm). After overnight incubation, 1 mL of bacterial suspensions were incubated with different concentrations of CHX (0.01, 0.005, 0.003, 0.001, 0.0001%) and HCX (0.003, 0.002, 0.001, 0.0002, 0.00002%) for 3 hours at 37° C. under aerobic conditions in an orbital shaker (180 rpm). Bacterial suspension without treatment served as negative control (C−). The optical density (OD) was measured at 600 nm at 0 h and 3 h to determine bacterial proliferation (PowerWave Ht). The bacterial growth rate (μ) was calculated during the exponential growth phase following the equation ln ODt−ln OD0=μ×(t−t0) (n=4). The live/Dead ratio of bacteria was determined using the LIVE/DEAD BacLight bacterial viability kit (Invitrogen), following the manufacturer's instructions. The assays were carried out in triplicate.
# The bacteria S. aureus was cultured and treated with different commercial antiseptic gels and HA hydrogel with […] HCX. The gels were tested at a concentration of 5% (v/v), and the experiment was run like in experiment 7, section 7.1.
# 16.1. […]
# [1] = system: human gingival fibroblast cells; assay: LDH cytotoxicity in immortalized human gingival fibroblasts; type: cell-based
# Procedure: Cells were seeded in 48-well plates at a density of 2×10^4 cells/well. When the cells reached confluence, they were treated with different concentrations of HCX, and cytotoxicity was determined.
# 48 hours after seeding the iHGF cells in 48-well plates, cell inflammation was induced by means of adding 1 μg/ml of P. gingivalis lipopolysaccharide (LPS) (InvivoGen, San Diego, CA, USA) and the cells were treated with different concentrations of HCX (0.00002, 0.0002, 0.002%) in a fibroblast medium with 50 μg/ml of ascorbic acid (Sigma-Aldrich, St. Louis, MO, USA) for 48 hours. Images of the cells were taken with a bright field inverted microscope (Nikon Eclipse TS100) before treatment and 24 hours and 48 hours after treatment.
# To estimate the cytotoxicity of the different concentrations of HCX, the presence of lactate dehydrogenase (LDH) in the culture media 48 h after pro-inflammatory stimulation with LPS and treatment with HCX was used as the cell death index. Following the manufacturer's instructions (Cytotoxicity Detection kit, Roche Diagnostics, Mannheim, Germany), LDH activity was determined spectrophotometrically after a 30-minute incubation at room temperature (RT) of 50 μl of culture media and 50 μl of the reaction mixture, measuring nicotinamide adenine dinucleotide (NADH) oxidation at 490 nm in the presence of pyruvate. Results were presented in relation to LDH activity of the media of the cells seeded without treatment (negative control, 0% cell death) and in relation to cells treated with 1% Triton X-100 (positive control, 100% death) using the following equation: Cytotoxicity (%)=[(expected value−negative control)/(positive control−negative control)]×100.
# Different hydrogel formulations with and without 0.05% of HCX (HA, GelMa, Alginate and HPMC) and commercial gel containing 0.2% chlorhexidine and unmodified HA (Periokin Hyaluronic 1%, Laboratorios Kin, Commercial HA 0.2% CHX) were used for studies with gingival fibroblasts and S. epidermidis. Cells and bacteria without hydrogels served as negative control (C−). Gels at a concentration of 5% (v/v) were used for cell and bacterial studies.
# Immortalized human gingival fibroblasts were cultured like in experiment 1 of section 1.2. The cells were treated with different hydrogel formulations with and without 0.05% of HCX (HA, GelMa, Alginate and HPMC) and commercial gel containing 0.2% chlorhexidine and unmodified HA (Periokin Hyaluronic 1%, Laboratorios Kin, commercial HA 0.2% CHX) in a fibroblast medium for 24 hours (n=4). Cell cytotoxicity was measured, like in experiment 1 of section 1.4.
# 16.1. […]
# Immortalized human gingival fibroblasts were cultured like in experiment 1 of section 1.2. […] Cell cytotoxicity was measured, like in experiment 1 of section 1.4.
smiles,measurement,setting,value
"CC(C)=CCc1c(O)cc(O)c2c(=O)c3cc4c(c(O)c3oc12)OC(C)(C)C=C4 [FXA, Formoxanthone A]",concentration with antibacterial effect without cytotoxicity,S. aureus; S. aureus 3 h together with LDH cytotoxicity in gingival fibroblasts 24 h,0.001%
"O=c1c2cc(O)c(O)cc2oc2cc(O)cc(O)c12 [NRT, norathryol, reference compound]",biocompatibility for the cells (LDH cytotoxicity),"[1]; all concentrations tested (0.4-77 μM), 24 h",biocompatible
same,antibacterial effect,"S. aureus; all concentrations tested (0.4-77 μM), 3 h",none of them were antibacterial
"COc1c(O)cc2oc3cc(O)c(CC=C(C)C)c(O)c3c(=O)c2c1CC=C(C)C [aMG, α-Mangostin]",toxicity to cells,[1]; 0.002% in solution,already toxic
